Source: article PMC8963254, “Effects of Lysine N-ζ-Methylation in Ultrashort Tetrabasic Lipopeptides (UTBLPs) on the Potentiation of Rifampicin, Novobiocin, and Niclosamide in Gram-Negative Bacteria” (Antibiotics, 2022)
Where two headings read alike, the source gives them in different places. Non-standard residues stand in square brackets, D forms with d. Residues, ends and D or L forms follow the SMILES beside them. *: point of attachment. Lys(Me3) = C[N+](C)(C)CCCC[C@H](N)C(=O)O; Octanoyl = CCCCCCCC(=O)*

Legend:
P. aeruginosa PAO1 = assay type: cell-based, Pseudomonas aeruginosa; conditions: PAO1, 18 h
Procedure: (§1) The in vitro antibacterial activity of the UTBLPs was assessed against wild-type and clinically isolated bacterial strains. To obtain the MIC of the compounds, the microbroth dilution susceptibility assay was performed according to the Clinical and Laboratory Standards Institute (CLSI, Wayne, PA, USA) guidelines and as previously described. Briefly, the compounds at varying concentrations were incubated with bacterial inoculum (5 × 10^5 CFU/mL final concentration) at 37 °C for 18 h. Growth in the form of turbidity was confirmed using an EMax Plus microplate reader (Molecular Devices, San Jose, CA, USA) at 590 nm.

A. baumannii ATCC 17978 [1] = assay type: cell-based, Acinetobacter baumannii; conditions: ATCC 17978, 18 h
Procedure: as §1

E. coli ATCC 25922 = assay type: cell-based, Escherichia coli; conditions: ATCC 25922, 18 h
Procedure: as §1

E. faecium ATCC 27270 = assay type: cell-based, Enterococcus faecium; conditions: ATCC 27270, 18 h
Procedure: as §1

A. baumannii AB027 [2] = assay: microbe, parasite or virus in culture; assay type: cell-based, Acinetobacter baumannii; conditions: AB027, 18 h
Procedure: as §1

A. baumannii AB92247 = assay: microbe, parasite or virus in culture; assay type: cell-based, Acinetobacter baumannii; conditions: AB92247, 18 h
Procedure: as §1

E. cloacae 118564 [3] = assay: microbe, parasite or virus in culture; assay type: cell-based, Enterobacter cloacae; conditions: 118564, 18 h
Procedure: as §1

K. pneumoniae 113250 [4] = assay: microbe, parasite or virus in culture; assay type: cell-based, Klebsiella pneumoniae; conditions: 113250, 18 h
Procedure: as §1

MRSE 61589 [5] = assay type: cell-based, Staphylococcus epidermidis; conditions: 61589, 18 h
Procedure: as §1

MSSE 81388 [6] = assay type: cell-based, Staphylococcus epidermidis; conditions: 18 h
Procedure: as §1

A. baumannii 92247 = assay type: cell-based, Acinetobacter baumannii; conditions: for MICUTBLP: UTBLP alone
Procedure: (§2) The synergy of the UTBLPs with various antibiotics was assessed using checkerboard assay as previously described. Briefly, the combination of antibiotic and OMP at varying concentrations were incubated with bacterial inoculum (5 × 10^5 CFU/mL final concentration) at 37 °C for 18 h. Growth in the form of turbidity was confirmed using an EMax Plus microplate reader (Molecular Devices, Union City, CA, USA) at 590 nm. Fractional inhibitory concentration index (FICI) was used to evaluate the interaction between the antibiotic and the OMP. FICI is the sum of the FIC of the antibiotic and the FIC of the OMP. The FIC value is calculated by dividing the MIC of the agents in combination by the MIC of the agent alone. FICI ≤ 0.5 is synergistic, 0.5 < x ≤ 4 is additive, and >4 is antagonistic.

A. baumannii AB027 [7] = assay type: cell-based, Acinetobacter baumannii; conditions: for MICUTBLP: UTBLP alone
Procedure: as §2

A. baumannii ATCC 17978 [8] = assay type: cell-based, Acinetobacter baumannii; conditions: for MICUTBLP: UTBLP alone
Procedure: as §2

E. cloacae 118564 [9] = assay type: cell-based, Enterobacter cloacae; conditions: for MICUTBLP: UTBLP alone
Procedure: as §2

K. pneumoniae 113250 [10] = assay type: cell-based, Klebsiella pneumoniae; conditions: for MICUTBLP: UTBLP alone
Procedure: as §2

MRSA ATCC 33592 = assay type: cell-based, Staphylococcus aureus
Procedure: as §2

S. aureus ATCC 29213 = assay type: cell-based, Staphylococcus aureus
Procedure: as §2

MRSE 61589 [11] = assay type: cell-based, Staphylococcus epidermidis
Procedure: as §2

MSSE 81388 [12] = assay type: cell-based, Staphylococcus epidermidis
Procedure: as §2

E. faecalis ATCC 29212 = assay type: cell-based, Enterococcus faecalis
Procedure: as §2

[13] = UTBLP in combination with novobiocin
[14] = UTBLP in combination with rifampicin
[15] = novobiocin in combination with the UTBLP
[16] = rifampicin in combination with the UTBLP
[17] = UTBLP in combination with chloramphenicol
[18] = chloramphenicol in combination with the UTBLP
[19] = UTBLP alone, plate with chloramphenicol

MIC (P. aeruginosa PAO1): >128 µg/mL | MIC (A. baumannii ATCC 17978 [1]): >128 µg/mL | MIC (E. coli ATCC 25922): >128 µg/mL | MIC (E. faecium ATCC 27270): 128 µg/mL | MIC (A. baumannii AB027 [2]): > 128 µg/mL | MIC (A. baumannii AB92247): 128 µg/mL | MIC (E. cloacae 118564 [3]): > 128 µg/mL | MIC (K. pneumoniae 113250 [4]): > 128 µg/mL | MIC (MRSE 61589 [5]): 128 µg/mL | MIC (MSSE 81388 [6]): 128 µg/mL | MICUTBLP (A. baumannii 92247; plate with novobiocin): 128 µg/mL | MICUTBLP (A. baumannii 92247; plate with rifampicin): 128 µg/mL | MICUTBLP [MICcombo] (A. baumannii 92247; [13]): 16 µg/mL | MICUTBLP [MICcombo] (A. baumannii 92247; [14]): 16 µg/mL | MICantibiotic [MICcombo] (A. baumannii 92247; [15]): 0.125 µg/mL | MICantibiotic [MICcombo] (A. baumannii 92247; [16]): 0.5 µg/mL | MICUTBLP (A. baumannii AB027 [7]; plate with novobiocin): > 128 µg/mL | MICUTBLP (A. baumannii AB027 [7]; plate with rifampicin): > 128 µg/mL | MICUTBLP [MICcombo] (A. baumannii AB027 [7]; [13]): 16 µg/mL | MICUTBLP [MICcombo] (A. baumannii AB027 [7]; [14]): 16 µg/mL | MICantibiotic [MICcombo] (A. baumannii AB027 [7]; [15]): 2 µg/mL | MICantibiotic [MICcombo] (A. baumannii AB027 [7]; [16]): 0.25 µg/mL | MICUTBLP (A. baumannii ATCC 17978 [8]; plate with chloramphenicol): > 128 µg/mL | MICUTBLP (A. baumannii ATCC 17978 [8]; plate with niclosamide): > 128 µg/mL | MICUTBLP (A. baumannii ATCC 17978 [8]; plate with novobiocin): > 128 µg/mL | MICUTBLP (A. baumannii ATCC 17978 [8]; plate with rifampicin): > 128 µg/mL | MICUTBLP [MICcombo] (A. baumannii ATCC 17978 [8]; [17]): 0.25 µg/mL | MICUTBLP [MICcombo] (A. baumannii ATCC 17978 [8]; UTBLP in combination with niclosamide): 2 µg/mL | MICUTBLP [MICcombo] (A. baumannii ATCC 17978 [8]; [13]): 16 µg/mL | MICUTBLP [MICcombo] (A. baumannii ATCC 17978 [8]; [14]): 16 µg/mL | MICantibiotic [MICcombo] (A. baumannii ATCC 17978 [8]; [18]): 64 µg/mL | MICantibiotic [MICcombo] (A. baumannii ATCC 17978 [8]; niclosamide in combination with the UTBLP): 16 µg/mL | MICantibiotic [MICcombo] (A. baumannii ATCC 17978 [8]; [15]): 4 µg/mL | MICantibiotic [MICcombo] (A. baumannii ATCC 17978 [8]; [16]): 0.25 µg/mL | MICUTBLP (E. cloacae 118564 [9]; plate with novobiocin): > 128 µg/mL | MICUTBLP (E. cloacae 118564 [9]; plate with rifampicin): > 128 µg/mL | MICUTBLP [MICcombo] (E. cloacae 118564 [9]; [13]): 16 µg/mL | MICUTBLP [MICcombo] (E. cloacae 118564 [9]; [14]): 16 µg/mL | MICantibiotic [MICcombo] (E. cloacae 118564 [9]; [15]): 32 µg/mL | MICantibiotic [MICcombo] (E. cloacae 118564 [9]; [16]): 4 µg/mL | MICUTBLP (K. pneumoniae 113250 [10]; plate with novobiocin): > 128 µg/mL | MICUTBLP (K. pneumoniae 113250 [10]; plate with rifampicin): > 128 µg/mL | MICUTBLP [MICcombo] (K. pneumoniae 113250 [10]; [13]): 16 µg/mL | MICUTBLP [MICcombo] (K. pneumoniae 113250 [10]; [14]): 16 µg/mL | MICantibiotic [MICcombo] (K. pneumoniae 113250 [10]; [15]): 32 µg/mL | MICantibiotic [MICcombo] (K. pneumoniae 113250 [10]; [16]): 4 µg/mL | MICUTBLP (MRSA ATCC 33592; [19]): > 128 µg/mL | MICUTBLP [MICcombo] (MRSA ATCC 33592; [17]): 0.25 µg/mL | MICchloramphenicol [MICcombo] (MRSA ATCC 33592; [18]): 64 µg/mL | MICUTBLP (S. aureus ATCC 29213; [19]): > 128 µg/mL | MICUTBLP [MICcombo] (S. aureus ATCC 29213; [17]): 0.25 µg/mL | MICchloramphenicol [MICcombo] (S. aureus ATCC 29213; [18]): 8 µg/mL | MICUTBLP (MRSE 61589 [11]; [19]): 128 µg/mL | MICUTBLP [MICcombo] (MRSE 61589 [11]; [17]): 0.25 µg/mL | MICchloramphenicol [MICcombo] (MRSE 61589 [11]; [18]): 8 µg/mL | MICUTBLP (MSSE 81388 [12]; [19]): 128 µg/mL | MICUTBLP [MICcombo] (MSSE 81388 [12]; [17]): 0.25 µg/mL | MICchloramphenicol [MICcombo] (MSSE 81388 [12]; [18]): 4 µg/mL | MICUTBLP (E. faecalis ATCC 29212; [19]): 128 µg/mL | MICUTBLP [MICcombo] (E. faecalis ATCC 29212; [17]): 16 µg/mL | MICchloramphenicol [MICcombo] (E. faecalis ATCC 29212; [18]): 4 µg/mL
Structure (SMILES): CCCCCCCC(=O)NCCCC[C@H](NC(=O)CCCCCCC)C(=O)N[C@@H](CCCC[N+](C)(C)C)C(=O)N[C@@H](CCCC[N+](C)(C)C)C(=O)N[C@@H](CCCC[N+](C)(C)C)C(=O)N[C@@H](CCCC[N+](C)(C)C)C(N)=O [UTBLP 8] (Octanoyl-K(Octanoyl)[Lys(Me3)][Lys(Me3)][Lys(Me3)][Lys(Me3)]-NH2)
Interpretation (A. baumannii 92247; UTBLP + novobiocin): Synergy (FICI ≤ 0.5 is synergistic) | Interpretation (A. baumannii 92247; UTBLP + rifampicin): Synergy (FICI ≤ 0.5 is synergistic) | Interpretation (A. baumannii AB027 [7]; UTBLP + novobiocin): Synergy (FICI ≤ 0.5 is synergistic) | Interpretation (A. baumannii AB027 [7]; UTBLP + rifampicin): Synergy (FICI ≤ 0.5 is synergistic) | Interpretation (A. baumannii ATCC 17978 [8]; UTBLP + chloramphenicol): Additive (0.5 < x ≤ 4 is additive) | Interpretation (A. baumannii ATCC 17978 [8]; UTBLP + niclosamide): Synergy (FICI ≤ 0.5 is synergistic) | Interpretation (A. baumannii ATCC 17978 [8]; UTBLP + novobiocin): Synergy (FICI ≤ 0.5 is synergistic) | Interpretation (A. baumannii ATCC 17978 [8]; UTBLP + rifampicin): Synergy (FICI ≤ 0.5 is synergistic) | Interpretation (E. cloacae 118564 [9]; UTBLP + novobiocin): Synergy (FICI ≤ 0.5 is synergistic) | Interpretation (E. cloacae 118564 [9]; UTBLP + rifampicin): Additive (0.5 < x ≤ 4 is additive) | Interpretation (K. pneumoniae 113250 [10]; UTBLP + novobiocin): Synergy (FICI ≤ 0.5 is synergistic) | Interpretation (K. pneumoniae 113250 [10]; UTBLP + rifampicin): Synergy (FICI ≤ 0.5 is synergistic) | Interpretation (MRSA ATCC 33592; UTBLP + chloramphenicol): Additive (0.5 < x ≤ 4 is additive) | Interpretation (MRSE 61589 [11]; UTBLP + chloramphenicol): Additive (0.5 < x ≤ 4 is additive) | Interpretation (MSSE 81388 [12]; UTBLP + chloramphenicol): Additive (0.5 < x ≤ 4 is additive) | Interpretation (E. faecalis ATCC 29212; UTBLP + chloramphenicol): Additive (0.5 < x ≤ 4 is additive)
